Test results from EP2208725A1, “Novel specific inhibitors of ubiquitin specific protease 7, the pharmaceutical compositions thereof and their therapeutic applications” (Hybrigenics S.A., priority 2009, dated 2010).

Target: T1, USP8 (Homo sapiens, UniProt P40818)
T1 construct: His (from pFastBac-HT vector); made in house; host or cells: Insect cells (Sf9 or High Five), baculovirus
T1 sequence (P40818 1-1118): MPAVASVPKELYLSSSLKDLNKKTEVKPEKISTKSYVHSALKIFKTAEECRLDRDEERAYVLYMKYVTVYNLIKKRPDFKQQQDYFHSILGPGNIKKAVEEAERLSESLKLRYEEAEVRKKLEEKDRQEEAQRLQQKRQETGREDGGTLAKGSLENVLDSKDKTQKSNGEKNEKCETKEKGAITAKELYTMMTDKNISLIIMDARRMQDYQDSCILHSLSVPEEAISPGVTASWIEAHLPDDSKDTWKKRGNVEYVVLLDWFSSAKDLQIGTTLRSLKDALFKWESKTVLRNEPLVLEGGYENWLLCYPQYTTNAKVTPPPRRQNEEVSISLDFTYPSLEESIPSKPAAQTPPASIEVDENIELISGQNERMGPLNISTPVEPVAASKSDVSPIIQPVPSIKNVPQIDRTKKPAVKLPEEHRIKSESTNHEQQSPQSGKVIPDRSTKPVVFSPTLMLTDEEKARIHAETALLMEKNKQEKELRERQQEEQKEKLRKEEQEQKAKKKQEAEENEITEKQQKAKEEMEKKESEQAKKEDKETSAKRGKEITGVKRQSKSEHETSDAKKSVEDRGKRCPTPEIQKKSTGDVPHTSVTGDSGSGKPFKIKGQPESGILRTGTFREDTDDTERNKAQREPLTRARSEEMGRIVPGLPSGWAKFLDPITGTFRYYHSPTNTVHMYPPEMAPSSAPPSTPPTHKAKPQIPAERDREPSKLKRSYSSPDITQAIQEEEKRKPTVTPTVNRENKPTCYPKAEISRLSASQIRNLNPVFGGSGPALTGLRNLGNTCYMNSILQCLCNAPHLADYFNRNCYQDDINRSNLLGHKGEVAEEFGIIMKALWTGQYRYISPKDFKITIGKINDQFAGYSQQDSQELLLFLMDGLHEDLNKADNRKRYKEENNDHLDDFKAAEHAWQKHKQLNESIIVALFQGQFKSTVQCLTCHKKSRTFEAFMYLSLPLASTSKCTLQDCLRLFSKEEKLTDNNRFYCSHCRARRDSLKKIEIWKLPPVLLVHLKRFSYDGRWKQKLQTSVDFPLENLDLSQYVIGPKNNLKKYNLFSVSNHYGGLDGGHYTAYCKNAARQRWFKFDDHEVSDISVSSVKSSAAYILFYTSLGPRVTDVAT
Assay: USP8 activity assay (Ub-AMC)
Assay type: biochemical
Settings: 400 nM Ub-AMC, 1.36 nM enzyme; compounds tested from 200 µM to 91 nM; unit inferred; read-out: Inhibition of cysteine protease activities: USP8
Excerpt: The cDNA encoding USP8 was obtained by PCR amplification from placenta mRNA. USP8 cDNA was subcloned by PCR into a baculovirus expression vector (pFastBac-HT; Invitrogen). A cDNA encoding a mutated USP8 was generated by mutagenic PCR. The corresponding protein encodes a cysteine to alanine substitution at residue 786. The sequences were ascertained by sequencing of the entire open reading frame. Bacmids encoding […] were generated following DH10bac transposition. The corresponding bacmids were transfected into insect cells (Sf9). Viruses were recovered from culture supernatant and amplified twice. Insect cells (Sf9 or High Five; Invitrogen) were infected for 72 hours. Total cell lysates were harvested and lyzed in lysis buffer (Tris HCl 50 mM pH7.6; 0.75 % NP40; 500 mM NaCl; 10 % glycerol; 1 mM DTT; 10 mM imidazole; Protease Inhibitor Cocktail; AEBSF 20 µg.ml^-1; Aprotinin 10 µg.ml^-1). Proteins were affinity purified on metal affinity resins (Talon Metal affinity resin; BD Biosciences). Bound materials were extensively washed in wash buffer (50 mM Sodium Phosphate pH 7.0; 300 mM NaCl; 10 mM imidazole; 0.5% Triton X-1 00; 10% glycerol) and eluted from the resin in 250 mM imidazole-containing wash buffer. Proteins were dialyzed in dialysis buffer (Tris HCl pH 7.6 20 mM; NaCl 200 mM; DTT 1 mM; EDTA 1 mM; 10% Glycerol). Proteins purifications were analyzed on 4-12% NuPAGE (Invitrogen).
USP8 was diluted in USP buffer (50 mM Tris HCl; 0.5 mM EDTA; 5 mM DTT; 0.01% Triton X-100; Bovine Serum Albumin 0.05 mg.ml^-1 pH8.8). Compounds stocks (100 mM) were stored at -20°C in DMSO. Compounds were tested at different concentrations: from 200 µM to 91 nM.
Reactions were performed as duplicates in Black LJL 96 well plates (HE microplates; Molecular Devices; 20 µl final reaction volume). The substrate concentration for USP8 was 400 nM Ub-AMC (Boston Biochem). The concentration of the enzyme (USP8) in specificity assays was 1.36 nM. The concentrations were determined in order to perform specificity assays under initial velocities at fixed substrate concentration. Compounds were pre-incubated with enzymes for 30 minutes at 25°C. Reactions were initiated by addition of substrate to the plates containing the enzymes (+/- compounds) diluted in assay buffer. Reactions were incubated for 60 minutes at 37°C. Reactions were stopped by adding acetic acid (100 mM final). Readings were performed on a Pherastar Fluorescent Reader (BMG). λ Emission 380 nm : λ Excitation = 460 nm. Data (mean values +/- standard deviation) were analyzed as % of control (no compound) and plotted as percentage versus the Log of the compound concentration using GraphPad (Prism). Data were fitted to a sigmoidal model (variable slope).

| Compound | IC50 [µM] |
| --- | --- |
| CC(=O)C1=C(O)C(=O)N(CCc2ccc(F)cc2)C1c1ccc(Br)cc1 (stereo not shown) [Example 33, 4-acetyl-5-(4-bromo-phenyl)-3-hydroxy-1-[2-(4-fluorophenyl)-ethyl]-1,5-dihydro-pyrrol-2-one] | > 200 |
| CCOc1ccc(CCN2C(=O)C(O)=C(C(C)=O)C2c2ccc(Br)cc2)cc1 (stereo not shown) [Example 34, 4-acetyl-5-(4-bromo-phenyl)-3-hydroxy-1-[2-(4-ethoxy-phenyl)-ethyl]-1,5-dihydro-pyrrol-2-one] | > 200 |
| CC(=O)C1=C(O)C(=O)N(CCc2ccccc2)C1c1ccc2c(c1)OCO2 (stereo not shown) [Example 37, 4-acetyl-5-benzo[1,3]dioxol-5-yl-3-hydroxy-1-phenethyl-1,5-dihydro-pyrrol-2-one] | > 200 |
| CC(=O)C1=C(O)C(=O)N(CCc2ccccc2)C1c1ccc(Br)c(Br)c1 (stereo not shown) [Example 41, 4-acetyl-5-(3,4-dibromo-phenyl)-3-hydroxy-1-phenethyl-1,5-dihydro-pyrrol-2-one] | > 200 |
| CC(=O)C1=C(O)C(=O)N(CCc2ccccc2)C1c1cccnc1Cl (stereo not shown) [Example 42, 4-acetyl-5-(2-chloro-pyridin-3-yl)-3-hydroxy-1-phenethyl-1,5-dihydro-pyrrol-2-one] | > 200 |
| CC(=O)C1=C(O)C(=O)N(CCc2ccc(Br)cc2)C1c1ccc(Cl)cc1 (stereo not shown) [Example 45, 4-Acetyl-5-(4-chlorophenyl)-1-[2-(4-bromophenyl)-ethyl]-3-hydroxy-1,5-dihydro-pyrrol-2-one] | > 200 |
| CC(=O)C1=C(O)C(=O)N(CCc2ccc(Cl)cc2)C1c1ccc(Cl)cc1 (stereo not shown) [Example 46, 4-Acetyl-5-(4-chlorophenyl)-1-[2-(4-chlorophenyl)-ethyl]-3-hydroxy-1,5-dihydro-pyrrol-2-one] | > 200 |
| CC(=O)C1=C(O)C(=O)N(CCc2ccc(Cl)cc2Cl)C1c1ccc(Br)cc1 (stereo not shown) [Example 47, 4-Acetyl-5-(4-bromophenyl)-1-[2-(2,4-dichlorophenyl)-ethyl]-3-hydroxy-1,5-dihydro-pyrrol-2-one] | > 200 |

Results, then the molecule that gave them:

| IC50 [µM] | Compound |
| --- | --- |
| > 200 | CC(=O)C1=C(O)C(=O)N(CCc2ccc(Cl)cc2)C1c1ccc(Br)cc1 (stereo not shown) [Example 25, 4-acetyl-5-(4-bromo-phenyl)-1-[2-(4-chloro-phenyl)-ethyl]-3-hydroxy-1,5-dihydro-pyrrol-2-one] |
| > 200 | CC(=O)C1=C(O)C(=O)N(CCc2ccc(Br)cc2)C1c1ccc(Br)cc1 (stereo not shown) [Example 26, 4-acetyl-5-(4-bromo-phenyl)-1-[2-(4-bromo-phenyl)-ethyl]-3-hydroxy-1,5-dihydro-pyrrol-2-one] |
| > 200 | CC(=O)C1=C(O)C(=O)N(CCc2ccc(Cl)c(Cl)c2)C1c1ccc(Br)cc1 (stereo not shown) [Example 28, 4-acetyl-5-(4-bromo-phenyl)-1-[2-(3,4-dichloro-phenyl)-ethyl]-3-hydroxy-1,5-dihydro-pyrrol-2-one] |
| > 200 | COc1cccc(CCN2C(=O)C(O)=C(C(C)=O)C2c2ccc(Br)cc2)c1 (stereo not shown) [Example 30, 4-acetyl-5-(4-bromo-phenyl)-3-hydroxy-1-[2-(3-methoxyphenyl)-ethyl]-1,5-dihydro-pyrrol-2-one] |
| > 200 | COc1ccc(CCN2C(=O)C(O)=C(C(C)=O)C2c2ccc(Br)cc2)cc1 (stereo not shown) [Example 32, 4-acetyl-5-(4-bromo-phenyl)-3-hydroxy-1-[2-(4-methoxyphenyl)-ethyl]-1,5-dihydro-pyrrol-2-one] |
